Measurements taken from ChEMBL document CHEMBL1201862, “PubChem BioAssay data set” (2004).
The source made the active and inactive calls.

Experiments:
[1] = target: T1, Endoribonuclease toxin MazF (Escherichia coli K-12, UniProt P0AE70); experiment: fluorescent RNA oligo signal without MazF, dose response, counter-screen for MazEF activator project, biochemical, fluorescence, single-stranded RNase substrate (AID 588502); format: functional
T1 sequence (P0AE70 whole entry): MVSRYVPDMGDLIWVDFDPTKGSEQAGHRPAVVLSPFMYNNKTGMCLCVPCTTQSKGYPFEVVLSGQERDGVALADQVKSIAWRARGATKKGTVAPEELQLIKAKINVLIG

[2] = target: T1, Endoribonuclease toxin MazF; experiment: MazF toxin RNase activators, dose response, biochemical, fluorescence, single-stranded RNA substrate, uHTS hits (AID 588481); format: functional
[3] = system: HEK293; experiment: cells; format: functional, cell-based; settings: Homo sapiens
[4] = target: T2, Nuclear receptor subfamily 0 group B member 1 (Homo sapiens, UniProt P51843); experiment: Luminescence-based cell-based high throughput dose response assay for inhibitors of the orphan nuclear receptor subfamily 0, group B, member 1 (DAX1; NR0B1). [Related pubchem assays (depositor defined):AID504766, AID504790]; format: functional
T2 sequence (P51843 whole entry): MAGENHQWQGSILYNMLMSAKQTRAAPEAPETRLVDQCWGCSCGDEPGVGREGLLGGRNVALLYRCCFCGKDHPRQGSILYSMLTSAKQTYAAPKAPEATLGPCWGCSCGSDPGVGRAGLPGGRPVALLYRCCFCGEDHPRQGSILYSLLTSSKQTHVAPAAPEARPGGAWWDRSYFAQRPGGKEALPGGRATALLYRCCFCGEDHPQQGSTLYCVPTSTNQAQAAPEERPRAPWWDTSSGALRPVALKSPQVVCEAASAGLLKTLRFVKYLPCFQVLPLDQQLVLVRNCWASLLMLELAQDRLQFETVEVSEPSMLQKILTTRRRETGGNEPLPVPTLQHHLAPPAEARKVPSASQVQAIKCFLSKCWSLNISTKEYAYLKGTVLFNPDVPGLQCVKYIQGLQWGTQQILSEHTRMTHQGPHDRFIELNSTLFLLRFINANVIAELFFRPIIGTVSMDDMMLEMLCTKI

[5] = target: T3, Cytochrome P450 2C9 (Homo sapiens, UniProt P11712)
[6] = target: Cytochrome P450 3A4 (Homo sapiens, UniProt P08684);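 note: CYP3A4 tested as one member of a cytochrome P450 panel screen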
[7] = system: Streptococcus; experiment: Group A Streptococcus viability loss, dose response, counter-screen for streptokinase expression inhibitor project, luminescence, BacTiterGlo (AID 1915); format: functional, organism-based;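 note: potency for reduction of bacterial viability or growth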
[8] = target: Dual specificity tyrosine-phosphorylation-regulated kinase 1A (Rattus norvegicus, UniProt Q63470); format: biochemical, Homo sapiens
[9] = target: FAD-linked sulfhydryl oxidase ALR (Homo sapiens, UniProt P55789); experiment: inhibitors of human ALR sulfhydryl oxidase, dose response, biochemical, H2O2 detection, luminescence, cherry-pick (AID 493248)
[10] = system: Streptococcus sp. 'group A'; experiment: growth inhibition of control SK(-) GAS strain, dose response, counter-screen for streptokinase expression inhibitor project, luminescence, kanamycin, BacTiterGlo, confirmation (AID 1900); format: functional, organism-based
[11] = target: Dual specificity protein kinase CLK1 (Homo sapiens, UniProt P49759); experiment: CLK1 kinase inhibitors, off-target check, dose response, selectivity assay for Dyrk1A inhibitor project, biochemical, cherry-picked samples (AID 588811)
[12] = inhibitors of SNCA 5'UTR-driven reporter translation, confirmation, H4 neuroglioma cells, luminescence (AID 1988); format: functional, cell-based
[13] = target: T4, RNA-binding protein pos-1 (Caenorhabditis elegans, UniProt G5EF15); experiment: inhibitors of POS-1/mex-3 RNA binding, dose response, biochemical, fluorescence polarization (AID 1964);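 note: purified POS-1 fused to maltose binding protein made in E. coli; potency of compounds blocking POS-1 binding to fluorescent RNA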
T4 sequence (G5EF15 whole entry): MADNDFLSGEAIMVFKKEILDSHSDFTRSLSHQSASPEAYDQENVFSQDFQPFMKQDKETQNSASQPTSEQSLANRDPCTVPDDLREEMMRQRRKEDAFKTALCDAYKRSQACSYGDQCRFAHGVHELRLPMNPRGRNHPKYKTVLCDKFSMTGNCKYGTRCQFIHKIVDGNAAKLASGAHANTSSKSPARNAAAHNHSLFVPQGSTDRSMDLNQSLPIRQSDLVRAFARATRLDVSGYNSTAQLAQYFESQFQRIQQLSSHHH

[14] = target: T5, Zinc finger protein mex-5 (Caenorhabditis elegans, UniProt Q9XUB2); experiment: MEX-5/TCR-2 RNA interaction inhibitors, dose response, biochemical, C. elegans, fluorescence polarization (AID 1960)
T5 sequence (Q9XUB2 whole entry): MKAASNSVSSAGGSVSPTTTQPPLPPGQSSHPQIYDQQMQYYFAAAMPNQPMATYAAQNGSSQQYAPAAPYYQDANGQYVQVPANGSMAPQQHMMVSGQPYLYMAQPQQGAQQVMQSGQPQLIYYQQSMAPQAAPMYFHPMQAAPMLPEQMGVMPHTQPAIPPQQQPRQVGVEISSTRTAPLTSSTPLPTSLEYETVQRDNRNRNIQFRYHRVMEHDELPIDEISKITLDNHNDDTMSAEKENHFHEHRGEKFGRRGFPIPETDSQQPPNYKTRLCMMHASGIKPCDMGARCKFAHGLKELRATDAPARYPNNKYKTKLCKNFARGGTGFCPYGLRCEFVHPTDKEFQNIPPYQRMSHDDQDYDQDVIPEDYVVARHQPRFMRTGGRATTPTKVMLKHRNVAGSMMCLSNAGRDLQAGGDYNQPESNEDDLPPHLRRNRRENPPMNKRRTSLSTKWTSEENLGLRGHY

[15] = Luminescence Cell-Based Dose Response HTS to Identify Inhibitors of 5'UTR Stem-Loop Driven Prion Protein mRNA Translation in H4 Neuroglioblastoma Cells. [Related pubchem assays: 1827 (Project Summary), 1813 (Primary HTS)]; format: functional
[16] = inhibitors of firefly luciferase expression or activity, dose response, H4 neuroglioma cells, luminescence (AID 1990); format: functional, cell-based
[17] = target: T3, Cytochrome P450 2C9; remark: listed apart in the source
[18] = target: Cytochrome P450 2C19 (Homo sapiens, UniProt P33261); experiment: Cytochrome panel assay with activity outcomes. Panel member name: p450-cyp2c19 Compounds with AC50 equal or less than 10 uM are considered active; format: functional; settings: read-out: AC50
[19] = target: T6, Replicative DNA helicase DnaB (Mycobacterium tuberculosis, UniProt P9WMR3); experiment: DnaB intein splicing inhibitors, dose response, biochemical, cell-free fluorescence (AID 449749); format: functional
T6 sequence (P9WMR3 whole entry): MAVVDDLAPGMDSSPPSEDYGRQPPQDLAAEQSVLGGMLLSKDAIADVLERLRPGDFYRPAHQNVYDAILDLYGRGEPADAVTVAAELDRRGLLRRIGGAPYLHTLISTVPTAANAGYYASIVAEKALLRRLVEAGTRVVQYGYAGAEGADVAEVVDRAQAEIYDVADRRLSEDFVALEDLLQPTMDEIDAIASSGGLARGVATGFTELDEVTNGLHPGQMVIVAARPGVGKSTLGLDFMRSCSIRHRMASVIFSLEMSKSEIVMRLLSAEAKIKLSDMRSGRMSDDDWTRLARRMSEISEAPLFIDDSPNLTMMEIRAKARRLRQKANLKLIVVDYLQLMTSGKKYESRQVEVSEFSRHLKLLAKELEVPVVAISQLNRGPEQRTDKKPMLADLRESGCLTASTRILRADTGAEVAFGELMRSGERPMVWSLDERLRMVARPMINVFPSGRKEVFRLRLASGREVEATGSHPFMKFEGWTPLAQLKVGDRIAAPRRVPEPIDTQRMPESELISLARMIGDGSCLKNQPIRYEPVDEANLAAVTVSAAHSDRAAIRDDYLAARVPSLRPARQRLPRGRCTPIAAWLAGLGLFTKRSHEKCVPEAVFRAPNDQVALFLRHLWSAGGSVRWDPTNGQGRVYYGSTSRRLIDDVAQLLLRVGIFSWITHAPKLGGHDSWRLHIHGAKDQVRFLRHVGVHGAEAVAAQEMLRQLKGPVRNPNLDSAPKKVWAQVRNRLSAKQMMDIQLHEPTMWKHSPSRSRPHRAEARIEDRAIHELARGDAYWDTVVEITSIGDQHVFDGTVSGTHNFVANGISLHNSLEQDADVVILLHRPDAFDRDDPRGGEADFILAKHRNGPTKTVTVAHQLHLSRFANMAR

[20] = cells; format: functional
[21] = target: T7, Protein RecA (Mycobacterium tuberculosis, UniProt P9WHJ3); experiment: Fluorescence Cell-Free Homogeneous Dose Retest to Identify Inhibitors of RecA-Intein Splicing Activity. [Related pubchem assays (depositor defined):AID2097, AID2223, AID489010, AID492950]; format: functional
T7 sequence (P9WHJ3 whole entry): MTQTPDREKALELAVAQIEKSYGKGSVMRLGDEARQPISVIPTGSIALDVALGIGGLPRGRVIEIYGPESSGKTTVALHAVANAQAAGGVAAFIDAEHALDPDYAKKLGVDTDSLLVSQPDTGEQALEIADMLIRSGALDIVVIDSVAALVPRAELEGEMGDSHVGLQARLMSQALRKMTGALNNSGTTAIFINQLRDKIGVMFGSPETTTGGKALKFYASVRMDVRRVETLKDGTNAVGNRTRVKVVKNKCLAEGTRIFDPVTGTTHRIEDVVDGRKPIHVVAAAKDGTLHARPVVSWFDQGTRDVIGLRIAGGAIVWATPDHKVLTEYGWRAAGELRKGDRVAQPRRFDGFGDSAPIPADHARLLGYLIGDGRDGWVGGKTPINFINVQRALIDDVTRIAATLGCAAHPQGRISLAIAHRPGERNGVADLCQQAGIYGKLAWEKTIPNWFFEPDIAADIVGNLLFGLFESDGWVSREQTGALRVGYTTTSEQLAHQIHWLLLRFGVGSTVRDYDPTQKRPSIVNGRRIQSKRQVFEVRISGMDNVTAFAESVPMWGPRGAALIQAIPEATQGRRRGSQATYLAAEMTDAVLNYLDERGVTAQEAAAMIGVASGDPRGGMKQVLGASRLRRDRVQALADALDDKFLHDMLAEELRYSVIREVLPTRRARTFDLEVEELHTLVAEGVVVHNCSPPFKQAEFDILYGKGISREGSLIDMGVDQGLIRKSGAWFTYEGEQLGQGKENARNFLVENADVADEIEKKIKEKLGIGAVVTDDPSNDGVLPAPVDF

[22] = target: SUMO E1/E2 (Homo sapiens, UniProt P63279+Q9UBE0+Q9UBT2); experiment: SAR analysis of SUMOylation using HTRF in an in-Vitro dose response assay. [Related pubchem assays (depositor defined):AID2006, AID2011, AID2018, AID2069, AID2658]; format: functional
[23] = target: T8, Sentrin-specific protease 8 (Homo sapiens, UniProt Q96LD8); format: functional
T8 sequence (Q96LD8 whole entry): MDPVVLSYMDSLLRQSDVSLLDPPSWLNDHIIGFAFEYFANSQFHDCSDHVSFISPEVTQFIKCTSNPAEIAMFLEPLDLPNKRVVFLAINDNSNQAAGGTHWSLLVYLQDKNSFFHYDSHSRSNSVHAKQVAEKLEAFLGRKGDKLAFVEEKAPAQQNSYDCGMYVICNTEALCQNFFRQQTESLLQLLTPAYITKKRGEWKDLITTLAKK

[24] = target: T8, Sentrin-specific protease 8; format: functional; remark: listed apart in the source
[25] = target: Genome polyprotein (dengue virus type 2, UniProt P29990); experiment: Dengue-2 NS5 methyltransferase inhibitors, primary screen, biochemical, confirmation dose response (AID 588689); format: functional
Genome polyprotein, sequence (P29990 2492-3391 limits assumed): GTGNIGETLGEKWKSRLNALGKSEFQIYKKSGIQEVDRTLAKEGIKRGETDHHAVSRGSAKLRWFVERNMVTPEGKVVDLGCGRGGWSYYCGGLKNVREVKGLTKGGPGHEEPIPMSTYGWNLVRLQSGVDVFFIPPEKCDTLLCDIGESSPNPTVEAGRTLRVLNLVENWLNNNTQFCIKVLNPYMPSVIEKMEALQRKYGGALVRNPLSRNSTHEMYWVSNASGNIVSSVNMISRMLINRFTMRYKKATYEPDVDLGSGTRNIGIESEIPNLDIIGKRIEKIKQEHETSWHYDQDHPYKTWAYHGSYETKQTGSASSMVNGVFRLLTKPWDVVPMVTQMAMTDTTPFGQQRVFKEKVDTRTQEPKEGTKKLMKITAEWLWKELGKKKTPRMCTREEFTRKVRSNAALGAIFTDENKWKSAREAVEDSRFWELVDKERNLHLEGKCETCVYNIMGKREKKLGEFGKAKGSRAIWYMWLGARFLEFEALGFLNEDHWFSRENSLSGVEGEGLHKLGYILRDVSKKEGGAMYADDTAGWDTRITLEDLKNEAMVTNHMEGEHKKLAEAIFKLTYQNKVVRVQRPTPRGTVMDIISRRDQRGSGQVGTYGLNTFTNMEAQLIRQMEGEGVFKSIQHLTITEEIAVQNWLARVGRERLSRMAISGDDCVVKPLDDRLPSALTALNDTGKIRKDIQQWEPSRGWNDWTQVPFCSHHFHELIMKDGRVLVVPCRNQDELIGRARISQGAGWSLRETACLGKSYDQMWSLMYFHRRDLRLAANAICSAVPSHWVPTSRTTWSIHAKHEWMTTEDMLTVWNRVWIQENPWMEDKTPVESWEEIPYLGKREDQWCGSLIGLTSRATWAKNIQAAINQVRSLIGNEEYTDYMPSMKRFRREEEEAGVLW

Cytochrome P450 3A4, sequence (P08684 whole entry): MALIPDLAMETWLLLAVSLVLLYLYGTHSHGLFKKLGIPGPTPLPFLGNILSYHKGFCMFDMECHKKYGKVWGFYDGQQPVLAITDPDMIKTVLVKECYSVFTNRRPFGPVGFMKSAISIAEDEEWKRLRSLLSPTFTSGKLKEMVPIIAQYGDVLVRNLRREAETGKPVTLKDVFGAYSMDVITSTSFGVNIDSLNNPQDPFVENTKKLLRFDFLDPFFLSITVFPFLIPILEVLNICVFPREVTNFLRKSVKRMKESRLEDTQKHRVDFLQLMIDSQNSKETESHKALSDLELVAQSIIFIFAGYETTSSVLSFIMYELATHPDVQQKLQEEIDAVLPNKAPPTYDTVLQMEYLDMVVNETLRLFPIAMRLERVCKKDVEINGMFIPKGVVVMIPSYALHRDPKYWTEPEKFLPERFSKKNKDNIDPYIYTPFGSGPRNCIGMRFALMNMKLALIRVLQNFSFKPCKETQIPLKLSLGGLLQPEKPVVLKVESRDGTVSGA
T3 sequence (P11712 whole entry): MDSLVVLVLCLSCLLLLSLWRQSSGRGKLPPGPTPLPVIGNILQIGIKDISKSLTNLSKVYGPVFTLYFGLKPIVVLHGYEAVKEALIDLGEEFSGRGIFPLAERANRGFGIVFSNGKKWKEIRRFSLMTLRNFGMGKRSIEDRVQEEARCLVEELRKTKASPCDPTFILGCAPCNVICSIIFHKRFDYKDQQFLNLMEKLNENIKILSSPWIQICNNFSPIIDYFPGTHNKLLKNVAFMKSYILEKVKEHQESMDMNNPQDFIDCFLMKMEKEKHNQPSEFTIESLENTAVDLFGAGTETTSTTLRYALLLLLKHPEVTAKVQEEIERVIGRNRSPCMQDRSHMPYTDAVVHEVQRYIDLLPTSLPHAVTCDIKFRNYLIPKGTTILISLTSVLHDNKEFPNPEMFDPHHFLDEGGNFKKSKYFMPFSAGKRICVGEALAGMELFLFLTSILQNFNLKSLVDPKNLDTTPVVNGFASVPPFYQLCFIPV
SUMO E1/E2, sequence (Q9UBE0 whole entry): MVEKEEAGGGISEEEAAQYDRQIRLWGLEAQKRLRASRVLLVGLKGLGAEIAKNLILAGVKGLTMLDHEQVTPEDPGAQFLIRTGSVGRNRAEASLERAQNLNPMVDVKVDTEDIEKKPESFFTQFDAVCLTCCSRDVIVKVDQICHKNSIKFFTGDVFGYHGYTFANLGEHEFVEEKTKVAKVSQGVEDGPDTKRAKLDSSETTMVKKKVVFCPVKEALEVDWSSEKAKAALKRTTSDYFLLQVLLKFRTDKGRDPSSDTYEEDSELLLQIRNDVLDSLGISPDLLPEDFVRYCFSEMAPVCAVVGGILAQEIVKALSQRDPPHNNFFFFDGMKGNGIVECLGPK
SUMO E1/E2, sequence (Q9UBT2 whole entry): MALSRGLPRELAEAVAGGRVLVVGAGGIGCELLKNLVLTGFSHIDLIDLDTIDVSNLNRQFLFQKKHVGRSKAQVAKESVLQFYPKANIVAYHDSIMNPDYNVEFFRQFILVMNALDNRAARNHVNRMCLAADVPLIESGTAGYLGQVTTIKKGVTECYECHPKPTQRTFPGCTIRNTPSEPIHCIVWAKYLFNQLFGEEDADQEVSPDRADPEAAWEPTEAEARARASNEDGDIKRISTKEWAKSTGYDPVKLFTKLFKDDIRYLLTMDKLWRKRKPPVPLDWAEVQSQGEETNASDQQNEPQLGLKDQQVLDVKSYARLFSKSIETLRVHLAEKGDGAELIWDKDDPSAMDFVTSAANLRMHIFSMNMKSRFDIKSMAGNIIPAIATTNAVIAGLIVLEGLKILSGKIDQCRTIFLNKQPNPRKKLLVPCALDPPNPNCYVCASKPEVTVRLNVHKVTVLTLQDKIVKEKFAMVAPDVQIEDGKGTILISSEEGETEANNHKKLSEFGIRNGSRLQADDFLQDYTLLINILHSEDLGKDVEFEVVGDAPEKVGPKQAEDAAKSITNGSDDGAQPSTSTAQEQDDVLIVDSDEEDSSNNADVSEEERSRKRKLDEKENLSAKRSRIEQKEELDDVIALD
SUMO E1/E2, sequence (P63279 whole entry): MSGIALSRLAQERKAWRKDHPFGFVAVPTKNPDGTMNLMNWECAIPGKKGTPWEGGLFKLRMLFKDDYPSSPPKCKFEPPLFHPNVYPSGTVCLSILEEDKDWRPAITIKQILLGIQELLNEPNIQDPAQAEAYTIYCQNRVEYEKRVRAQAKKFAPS
FAD-linked sulfhydryl oxidase ALR, sequence (P55789 whole entry): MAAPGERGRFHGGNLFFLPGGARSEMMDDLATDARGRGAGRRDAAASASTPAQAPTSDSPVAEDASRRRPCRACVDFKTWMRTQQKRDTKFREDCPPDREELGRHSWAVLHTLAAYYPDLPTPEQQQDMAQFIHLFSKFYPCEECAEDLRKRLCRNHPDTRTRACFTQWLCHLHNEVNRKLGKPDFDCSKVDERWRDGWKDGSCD
Cytochrome P450 2C19, sequence (P33261 whole entry): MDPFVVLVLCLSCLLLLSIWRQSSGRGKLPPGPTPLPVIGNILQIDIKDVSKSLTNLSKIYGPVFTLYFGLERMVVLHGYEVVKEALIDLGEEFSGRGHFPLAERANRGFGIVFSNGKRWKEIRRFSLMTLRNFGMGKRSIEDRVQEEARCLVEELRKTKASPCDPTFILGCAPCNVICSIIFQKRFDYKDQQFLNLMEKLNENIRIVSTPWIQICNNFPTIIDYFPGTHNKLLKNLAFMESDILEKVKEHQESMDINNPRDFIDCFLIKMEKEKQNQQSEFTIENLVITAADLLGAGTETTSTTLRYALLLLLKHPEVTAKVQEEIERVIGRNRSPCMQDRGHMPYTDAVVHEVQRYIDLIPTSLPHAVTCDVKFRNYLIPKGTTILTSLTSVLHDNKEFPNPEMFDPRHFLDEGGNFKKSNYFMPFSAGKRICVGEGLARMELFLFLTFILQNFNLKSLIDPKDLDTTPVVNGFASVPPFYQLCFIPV
Dual specificity protein kinase CLK1, sequence (P49759 whole entry): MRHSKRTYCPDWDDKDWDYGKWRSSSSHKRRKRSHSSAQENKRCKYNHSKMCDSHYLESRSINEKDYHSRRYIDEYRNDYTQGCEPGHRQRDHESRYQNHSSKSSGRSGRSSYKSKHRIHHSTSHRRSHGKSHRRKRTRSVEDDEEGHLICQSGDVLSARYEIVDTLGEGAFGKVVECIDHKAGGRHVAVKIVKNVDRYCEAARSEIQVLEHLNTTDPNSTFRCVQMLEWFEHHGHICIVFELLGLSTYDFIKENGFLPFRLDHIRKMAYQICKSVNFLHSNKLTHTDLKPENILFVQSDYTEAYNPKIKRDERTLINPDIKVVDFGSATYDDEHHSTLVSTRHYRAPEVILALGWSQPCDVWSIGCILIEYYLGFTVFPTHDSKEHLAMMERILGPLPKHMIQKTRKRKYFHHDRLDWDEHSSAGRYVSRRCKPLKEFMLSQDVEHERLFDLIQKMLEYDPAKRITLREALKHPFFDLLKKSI

COc1ccc(C(=O)Nc2nc(C)c(C(C)=O)s2)cc1S(=O)(=O)N1CCOCC1
EC50 [1]: > 99 µM (inactive) | EC50 [2]: > 99 µM (inactive)

CCn1c(=O)c(C(=O)NNS(=O)(=O)c2ccc(Br)cc2)c(O)c2ccccc21
IC50 [3]: > 67.6 µM (inactive) | IC50 [4]: > 67.6 µM (inactive)

COc1ccc(-c2noc(-c3ccoc3C)n2)cc1
IC50 [3]: > 67.6 µM (inactive) | IC50 [4]: > 67.6 µM (inactive)

O=C(c1ccco1)N1CCC2(CC1)CCN(C(c1ccccc1)c1ccccc1)CC2
AC50 [5]: 39.8 µM (inconclusive) | AC50 [6]: inconclusive

Cc1noc(NS(=O)(=O)c2ccc(NC(=O)c3oc4ccc(Cl)cc4c3C)cc2)c1C
EC50 [7]: 36.9 µM (active) | AC50 [8]: 6.88 µM (active) | AC50 [9]: 0.626 µM (active) | EC50 [10]: 8.14 µM (active) | AC50 [11]: 10 µM (active)

Cn1cccc1/C=C1\SC(=O)N(c2ccc(O)cc2)C1=O
EC50 [1]: 29.2 µM (inactive) | EC50 [2]: > 99 µM (inactive)

Cc1c(N/C=C2/C(=O)N(C)C(=O)c3ccccc32)c(=O)n(-c2ccccc2)n1C
EC50 [1]: 56.4 µM (inactive) | EC50 [12]: > 120 µM (not active) | EC50 [13]: > 300 µM (not active) | EC50 [14]: > 300 µM (inconclusive) | EC50 [15]: > 120 µM (not active) | EC50 [2]: > 99 µM (inactive) | EC50 [16]: > 120 µM (not active)

CCOC(=O)CN1C(=O)Nc2ccc(Br)cc2C1c1ccccc1 (centres undefined)
AC50 [6]: inconclusive

CC(=O)OCc1nc2ccccc2s1
AC50 [17]: inconclusive | AC50 [18]: 25.1 µM (inconclusive) | AC50 [6]: inconclusive

Cc1n[nH]c(O)c1C(c1ccc(-c2ccc(F)cc2)o1)c1c(C)n[nH]c1O
AC50 [19]: 0.321 µM (active) | IC50 [20]: 41.6 µM (active) | EC50 [21]: 0.297 µM (active) | IC50 [22]: > 100 µM (inactive) | IC50 [23]: 14 µM (active) | IC50 [24]: 12.3 µM (active) | IC50 [25]: 58.1 µM (active)

Cc1cccc(-c2nc(Nc3ccc(O)cc3)c3ccccc3n2)c1
AC50 [8]: 1.1 µM (active)
